One series deals with Cytochrome P450 2C9 (Homo sapiens, UniProt P11712).
In the next series the target is T1, Cytochrome P450 1A2 (Homo sapiens, UniProt P05177).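 Note: PubChem cytochrome P450 panel assay, CYP1A2 panel member.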
T1 sequence (P05177 whole entry): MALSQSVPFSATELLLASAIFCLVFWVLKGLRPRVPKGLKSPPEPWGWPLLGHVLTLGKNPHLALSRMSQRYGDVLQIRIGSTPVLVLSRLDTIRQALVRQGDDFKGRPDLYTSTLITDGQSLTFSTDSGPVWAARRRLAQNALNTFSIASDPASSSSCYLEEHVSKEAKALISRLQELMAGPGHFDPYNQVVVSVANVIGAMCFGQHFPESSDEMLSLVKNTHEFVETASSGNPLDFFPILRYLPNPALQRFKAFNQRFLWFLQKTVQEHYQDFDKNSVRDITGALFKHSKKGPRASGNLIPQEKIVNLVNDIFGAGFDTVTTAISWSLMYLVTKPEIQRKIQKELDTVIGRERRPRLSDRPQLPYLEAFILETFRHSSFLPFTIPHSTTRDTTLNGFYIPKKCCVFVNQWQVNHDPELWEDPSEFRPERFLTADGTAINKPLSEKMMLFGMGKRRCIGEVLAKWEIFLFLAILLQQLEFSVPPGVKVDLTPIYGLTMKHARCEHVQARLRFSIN

The target in a further series is Cytochrome P450 3A4 (Homo sapiens, UniProt P08684).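 Note: CYP3A4 tested as one member of a cytochrome P450 panel screen.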
Series [1] in a line: NIH3T3 cell viability loss – ATP luminescence, mouse fibroblasts, counter-screen, dose response (AID 2010).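 Note: cells exposed to compound for about 90 hours before reading.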 Format: functional, cell-based. (Counterscreens check selectivity or assay interference.)
Series [2] is described as follows: Trypanosoma cruzi growth suppression in host cells – NIH3T3 host cells, beta-gal luminescence, confirmation (AID 2044).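 Note: intracellular parasites grown in NIH/3T3 mouse fibroblasts as host cells; luminescent beta-galactosidase reporter signal from transgenic T. cruzi replicating inside host cells; inhibitors lower the luminescence signal.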 It is filed as functional, cell-based.
A further series addresses Cytochrome P450 2C19 (Homo sapiens, UniProt P33261). In words: Cytochrome panel assay with activity outcomes. Panel member name: p450-cyp2c19 Compounds with AC50 equal or less than 10 uM are considered active. It is filed as functional.
Another series addresses Large T antigen (Simian virus 40, UniProt P03070). Format: functional, Betapolyomavirus macacae.
In series [3] the target is T2, Zinc finger protein mex-5 (Caenorhabditis elegans, UniProt Q9XUB2).
T2 sequence (Q9XUB2 whole entry): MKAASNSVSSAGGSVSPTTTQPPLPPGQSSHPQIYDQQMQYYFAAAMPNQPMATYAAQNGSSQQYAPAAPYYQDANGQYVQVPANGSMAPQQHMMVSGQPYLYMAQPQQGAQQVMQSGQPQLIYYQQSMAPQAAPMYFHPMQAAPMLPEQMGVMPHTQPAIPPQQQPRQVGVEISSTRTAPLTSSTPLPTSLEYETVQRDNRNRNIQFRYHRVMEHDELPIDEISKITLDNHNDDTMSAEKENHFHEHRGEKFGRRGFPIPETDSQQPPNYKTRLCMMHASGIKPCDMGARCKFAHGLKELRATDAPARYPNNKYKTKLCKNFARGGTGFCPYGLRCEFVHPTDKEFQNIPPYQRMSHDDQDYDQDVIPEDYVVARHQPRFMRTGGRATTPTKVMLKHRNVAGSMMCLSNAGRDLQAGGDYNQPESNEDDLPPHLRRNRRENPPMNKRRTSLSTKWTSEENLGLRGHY
In words: potency of MEX-5 RNA-binding blockers – biochemical, C. elegans, fluorescence polarization, dose response (AID 1960). On the technique in general: In fluorescence polarisation assays a small probe gives low polarisation when free and higher when bound to something large.

Series [4] concerns the target T3, RNA-binding protein pos-1 (Caenorhabditis elegans, UniProt G5EF15).
T3 sequence (G5EF15 whole entry): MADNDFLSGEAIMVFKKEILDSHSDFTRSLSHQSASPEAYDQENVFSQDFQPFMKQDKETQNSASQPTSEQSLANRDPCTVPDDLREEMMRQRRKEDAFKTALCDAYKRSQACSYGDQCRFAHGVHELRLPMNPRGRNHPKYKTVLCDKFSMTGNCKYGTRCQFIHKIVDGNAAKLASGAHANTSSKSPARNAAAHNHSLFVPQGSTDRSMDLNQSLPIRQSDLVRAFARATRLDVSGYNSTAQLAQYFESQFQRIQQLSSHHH
In words: disruptors of C. elegans POS-1 RNA interaction – biochemical, fluorescence polarization, dose response (AID 1964).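 Note: purified POS-1 fused to maltose binding protein made in E. coli; potency of compounds blocking POS-1 binding to fluorescent RNA.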

Series [5] addresses T4, Ubiquitin-conjugating enzyme E2 N (Homo sapiens, UniProt P61088).
T4 sequence (P61088 whole entry): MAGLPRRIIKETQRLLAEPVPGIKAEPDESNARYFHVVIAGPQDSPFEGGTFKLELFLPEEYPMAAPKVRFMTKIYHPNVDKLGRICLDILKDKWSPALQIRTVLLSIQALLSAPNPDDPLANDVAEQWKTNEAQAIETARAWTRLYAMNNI
Format: functional.

A short description of series [6]: viability of PTEN-deleted HCT116 cells – cell-based, HCT116 PTEN knockout, dose response (AID 1047).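 Note: HCT116 colon tumor cells with PTEN knocked out; cells exposed to compound for 60 hours before readout; potency for loss of cell viability measured by luminescence.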 It is filed as functional.
Series [7] can be described thus: Luminescence Cell-Based Dose Retest to Confirm Inhibitors of Cancer Stem Cells. [Related pubchem assays (depositor defined):AID2717, AID2721]. As to conditions: Homo sapiens. Format: functional.
Series [8] in a line: viability of HCT116 lacking mutant beta-catenin – cell-based, human colon tumor, dose response (AID 1045).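 Note: HCT116 colon tumor cells with beta catenin knocked out; cells exposed to compound for 60 hours.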 Format: functional.
Series [9] has as its target T5, Rac GTPase-activating protein 1 (Homo sapiens, UniProt Q9H0H5).
T5 sequence (Q9H0H5 whole entry): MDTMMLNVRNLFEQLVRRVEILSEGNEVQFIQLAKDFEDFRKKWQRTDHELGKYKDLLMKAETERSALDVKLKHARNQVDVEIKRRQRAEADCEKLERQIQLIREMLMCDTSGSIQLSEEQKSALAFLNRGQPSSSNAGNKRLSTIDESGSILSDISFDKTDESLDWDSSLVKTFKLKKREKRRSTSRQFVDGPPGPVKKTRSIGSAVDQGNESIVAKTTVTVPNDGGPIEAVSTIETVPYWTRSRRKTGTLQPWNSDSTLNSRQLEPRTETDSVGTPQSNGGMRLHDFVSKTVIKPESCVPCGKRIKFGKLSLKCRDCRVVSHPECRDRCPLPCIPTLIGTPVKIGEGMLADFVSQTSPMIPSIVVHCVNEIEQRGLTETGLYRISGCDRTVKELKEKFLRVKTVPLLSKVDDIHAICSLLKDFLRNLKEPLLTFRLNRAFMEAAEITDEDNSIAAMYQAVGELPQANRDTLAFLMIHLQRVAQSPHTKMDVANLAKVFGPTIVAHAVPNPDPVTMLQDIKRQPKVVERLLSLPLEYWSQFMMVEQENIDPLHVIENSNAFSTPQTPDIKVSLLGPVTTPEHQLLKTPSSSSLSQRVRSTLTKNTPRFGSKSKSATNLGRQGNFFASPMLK
In words: blockers of MgcRacGAP-driven Rac1 GTP hydrolysis – biochemical, ADP Hunter fluorescence, primary and confirmatory, confirmation (AID 624330). Format: functional.

A short description of series [10]: viability loss in HeLa cells – cytotoxicity control for MgcRacGAP inhibitor project, dose response (AID 624300). It is filed as functional.

In general, AC50 refers to the concentration giving half of the maximal activity seen. As usually defined, the EC50 is the concentration at which the effect is half-maximal. As a reminder, the IC50 is the point on the concentration scale where inhibition reaches its midpoint. The term CC50 denotes the concentration giving 50% cytotoxicity.

Active and inactive are the calls of the source. A value given as a limit tells only on which side of the number the result lay.

Sequence of Cytochrome P450 3A4 (P08684 whole entry): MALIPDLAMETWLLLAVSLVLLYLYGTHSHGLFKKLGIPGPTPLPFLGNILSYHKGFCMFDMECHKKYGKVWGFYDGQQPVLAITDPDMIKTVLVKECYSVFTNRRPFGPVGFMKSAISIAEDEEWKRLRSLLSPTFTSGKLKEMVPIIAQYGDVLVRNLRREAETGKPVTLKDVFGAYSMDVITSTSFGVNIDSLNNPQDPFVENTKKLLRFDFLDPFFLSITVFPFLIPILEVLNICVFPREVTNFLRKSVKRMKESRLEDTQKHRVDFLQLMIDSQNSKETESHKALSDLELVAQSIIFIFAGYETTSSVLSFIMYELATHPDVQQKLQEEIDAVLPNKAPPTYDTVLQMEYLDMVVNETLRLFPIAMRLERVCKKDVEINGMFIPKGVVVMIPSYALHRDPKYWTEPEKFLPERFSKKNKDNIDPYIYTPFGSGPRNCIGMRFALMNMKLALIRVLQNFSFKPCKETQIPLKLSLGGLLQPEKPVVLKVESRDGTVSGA
Sequence of Cytochrome P450 2C19 (P33261 whole entry): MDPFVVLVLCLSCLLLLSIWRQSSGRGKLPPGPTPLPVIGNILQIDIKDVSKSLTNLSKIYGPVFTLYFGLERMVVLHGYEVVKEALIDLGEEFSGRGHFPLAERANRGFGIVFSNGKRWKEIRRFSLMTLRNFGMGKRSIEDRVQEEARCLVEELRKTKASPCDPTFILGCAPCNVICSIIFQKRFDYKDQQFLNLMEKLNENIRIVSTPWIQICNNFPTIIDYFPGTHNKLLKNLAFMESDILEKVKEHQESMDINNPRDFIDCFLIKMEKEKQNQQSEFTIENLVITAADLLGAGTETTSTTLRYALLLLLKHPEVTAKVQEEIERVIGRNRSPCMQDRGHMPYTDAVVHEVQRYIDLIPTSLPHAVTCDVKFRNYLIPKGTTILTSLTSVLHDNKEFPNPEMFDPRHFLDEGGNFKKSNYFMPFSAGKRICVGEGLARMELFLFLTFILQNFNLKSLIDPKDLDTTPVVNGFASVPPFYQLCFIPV
Sequence of Large T antigen (P03070 whole entry): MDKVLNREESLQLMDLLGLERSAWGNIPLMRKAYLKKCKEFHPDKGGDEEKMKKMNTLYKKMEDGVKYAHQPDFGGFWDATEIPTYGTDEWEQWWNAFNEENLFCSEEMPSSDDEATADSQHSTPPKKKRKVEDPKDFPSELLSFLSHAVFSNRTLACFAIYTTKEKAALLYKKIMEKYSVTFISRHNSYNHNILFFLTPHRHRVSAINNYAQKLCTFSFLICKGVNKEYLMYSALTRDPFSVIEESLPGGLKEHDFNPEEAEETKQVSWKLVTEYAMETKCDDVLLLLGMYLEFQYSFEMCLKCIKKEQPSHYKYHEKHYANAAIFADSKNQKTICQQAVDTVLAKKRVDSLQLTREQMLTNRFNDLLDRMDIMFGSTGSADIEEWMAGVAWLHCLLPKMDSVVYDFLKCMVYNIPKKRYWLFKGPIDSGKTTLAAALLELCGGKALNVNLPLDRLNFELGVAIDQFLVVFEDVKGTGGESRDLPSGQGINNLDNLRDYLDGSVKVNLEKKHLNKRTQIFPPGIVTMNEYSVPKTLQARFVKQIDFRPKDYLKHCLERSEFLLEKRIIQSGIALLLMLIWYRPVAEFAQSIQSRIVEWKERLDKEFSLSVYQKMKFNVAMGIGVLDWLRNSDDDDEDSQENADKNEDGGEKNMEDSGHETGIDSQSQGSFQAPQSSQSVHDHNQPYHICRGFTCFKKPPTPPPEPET
Sequence of Cytochrome P450 2C9 (P11712 whole entry): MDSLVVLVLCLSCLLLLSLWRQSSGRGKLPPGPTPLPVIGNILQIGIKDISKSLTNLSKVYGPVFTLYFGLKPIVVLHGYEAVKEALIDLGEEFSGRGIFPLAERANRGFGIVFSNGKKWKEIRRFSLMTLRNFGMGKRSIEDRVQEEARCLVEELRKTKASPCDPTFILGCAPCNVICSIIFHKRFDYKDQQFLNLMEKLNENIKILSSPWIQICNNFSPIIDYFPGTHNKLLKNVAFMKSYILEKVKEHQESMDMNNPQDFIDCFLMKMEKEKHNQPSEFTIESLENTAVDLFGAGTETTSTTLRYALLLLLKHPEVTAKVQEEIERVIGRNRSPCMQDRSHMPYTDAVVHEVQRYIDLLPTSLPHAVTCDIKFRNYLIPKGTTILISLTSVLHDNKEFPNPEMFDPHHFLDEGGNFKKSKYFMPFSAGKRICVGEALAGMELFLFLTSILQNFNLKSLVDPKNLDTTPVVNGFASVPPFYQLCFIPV

As for `COc1ncc2nc(-c3cn(C)c4ccccc34)c(=O)n(-c3ccccc3)c2n1`, the half-maximal activity concentration (AC50) entry on Cytochrome P450 2C9 is “inconclusive”; at Cytochrome P450 1A2, 5.01 µM (inconclusive); at Cytochrome P450 3A4 it was 3.16 µM (inconclusive).

Take `Cc1sc(N/N=C/C=C/c2ccccc2)nc1-c1ccccc1`: the EC50 in series [1] was 13.8 µM (active); in [2] it was 2.67 µM (active). The figures for the AC50 entry at Cytochrome P450 2C9 and on Cytochrome P450 1A2 were “inconclusive” and 3.55 µM (inconclusive), respectively.

As for `Cc1ccc(C(=O)NC(=S)Nc2cc(C(F)(F)F)ccc2Cl)cc1`, the AC50 entry was “inconclusive” at Cytochrome P450 2C19, “inconclusive” at Cytochrome P450 2C9 and 0.562 µM (inconclusive) on Cytochrome P450 1A2.

As to `Cc1ccccc1N1C(=O)NC(=O)/C(=C/Nc2ccc(N(C)C)cc2)C1=O`, the values for the AC50 at Cytochrome P450 2C19 (read-out: AC50) and at Cytochrome P450 3A4 were 22.4 µM (inconclusive) and 0.398 µM (inconclusive), respectively. Also, at Large T antigen, the IC50 was 6.73 µM (active).

With `O=C(OCCc1ccccc1)c1cc(O)c(O)c(O)c1`, on Large T antigen, the half-inhibitory concentration (IC50) is > 100 µM (active). The half-maximal effective concentration (EC50) was 29.6 µM (active) in series [3] and > 300 µM (not active) in [4].

Consider `COc1ccc(N2CCC(CN=C(S)Nc3ccc(C)cc3C)C2)cc1` (stereo not given), for which the IC50 on Large T antigen is 11 µM (active).

Consider `COc1cc2[nH]c3c(N4CCN(c5ccc(Cl)cc5)CC4)ncnc3c2cc1OC`, for which the IC50 in [5] was > 20 µM (inactive).

In the case of `CN(C)c1nn(C(=O)Nc2ccc(Cl)cc2Cl)cc1-c1ccccc1`, the IC50 at Large T antigen was 38 µM (active).

In the case of `COc1ccc(C(=O)Nn2cnc3ccccc3c2=O)c(OC)c1`, the AC50 at Cytochrome P450 2C19 (read-out: AC50) is 17.8 µM (inconclusive); on Cytochrome P450 2C9, “inconclusive”; on Cytochrome P450 1A2, 11.2 µM (inconclusive).

Consider `CCN(CC)S(=O)(=O)c1ccc(C(=O)NNC(=O)C2CCN(S(=O)(=O)c3ccc(Cl)cc3)CC2)cc1`, for which, in series [5], the IC50 is > 20 µM (inactive).

Consider `CCC12CN3CC(CC)(CN(C1)C3c1cccnc1)C2=O` (stereo not given), for which the values for the concentration at half-maximal activity (AC50) result on Cytochrome P450 2C9, on Cytochrome P450 1A2 and at Cytochrome P450 3A4 were “inconclusive”, 28.2 µM (inconclusive) and 4.47 µM (inconclusive), respectively.

As for `N#C/C(=C/c1cn(-c2ccccc2)nc1-c1cccc(OCc2ccccc2)c1)C(=O)NCCCn1ccnc1`, the EC50 in [1] was > 30 µM (not active); in series [6], 23.8 µM (active); in [8], 22 µM (active); in series [2], 1.44 µM (active). Further, the AC50 in [7] is 5.32 µM (active). Besides, the IC50 in series [5] is > 20 µM (inactive).

Turning to `COc1ccc(-c2nc3cnc(N4CCOCC4)nc3n(C[C@H]3CCCO3)c2=O)cc1`, the AC50 entry on Cytochrome P450 2C9 is “inconclusive”; at Cytochrome P450 1A2, 5.01 µM (inconclusive).

As to `COc1ccccc1OCCN1C(=O)S/C(=C\c2ccco2)C1=O`, on Cytochrome P450 2C9, the AC50 entry is recorded as “inconclusive”.

Consider `CCn1c(=O)c(C(=O)NCCN2CCCCC2)c(O)c2ccccc21`, for which the IC50 in series [5] is > 20 µM (inactive).

Turning to `COc1ccc(CNCCc2ccc(Cl)cc2)c(OC)c1OC`, the concentration for a half-maximal effect (EC50) in series [1] was > 60 µM (not active); in series [2], 0.462 µM (active). In addition, the IC50 in [9] was 259 µM (active). The CC50 in series [10] was 100 µM (active).

On to `CC1CN=C(Nc2ccc(N(C)C)cc2)S1` (stereo not given), for which the concentration for half-maximal inhibition (IC50) on Large T antigen is 9.27 µM (active).

For `Cc1nc(NC(=O)c2ccccc2)sc1-c1csc(Nc2ccc(Cl)cc2)n1`, the values for the half-maximal activity concentration (AC50) entry on Cytochrome P450 2C9 and on Cytochrome P450 1A2 were “inconclusive” and 7.08 µM (inconclusive), respectively.

Take `NS(=O)(=O)c1cc(Br)c(/N=N\c2ccc(O)c3ncccc23)c(Br)c1`: the figures for the AC50 entry at Cytochrome P450 2C9 and on Cytochrome P450 1A2 were “inconclusive” and 1.26 µM (inconclusive), respectively.

The values above are taken from ChEMBL document CHEMBL1201862, “PubChem BioAssay data set” (2004).
